Results as given in PubChem BioAssay (NCI).
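At the GI50, growth is halved. The concentration for full growth arrest is given as TGI.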

Key:
Assay in all cases: DTP human tumour cell line panel, 384-well format; in the data active = GI50 below about 0.43 µM; inactive = the rest
COLO 205 colon = test system: COLO 205 colon
SK-MEL-2 melanoma = test system: SK-MEL-2 melanoma
A498 renal = test system: A498 renal
HL-60(TB) leukemia = test system: HL-60(TB) leukemia
MOLT-4 leukemia = test system: MOLT-4 leukemia
HCT-15 colon = test system: HCT-15 colon
NCI-H522 lung = test system: NCI-H522 lung
U251 glioblastoma = test system: U251 glioblastoma
HOP-62 NSCLC = test system: HOP-62 NSCLC
SN12C renal = test system: SN12C renal
M14 melanoma = test system: M14 melanoma
HT29 colon = test system: HT29 colon
NCI/ADR-RES ovarian = test system: NCI/ADR-RES ovarian
SR leukemia = test system: SR leukemia
NCI-H460 NSCLC = test system: NCI-H460 NSCLC
NCI-H322M lung = test system: NCI-H322M lung
A549 NSCLC = test system: A549 NSCLC
MDA-MB-231 breast = test system: MDA-MB-231 breast
SK-OV-3 ovarian = test system: SK-OV-3 ovarian
OVCAR-3 ovarian = test system: OVCAR-3 ovarian
KM12 colon = test system: KM12 colon
MALME-3M melanoma = test system: MALME-3M melanoma
SW-620 colon = test system: SW-620 colon
HCC-2998 colon = test system: HCC-2998 colon
OVCAR-4 ovarian = test system: OVCAR-4 ovarian
NCI-H226 lung = test system: NCI-H226 lung
MCF7 breast = test system: MCF7 breast
SK-MEL-28 melanoma = test system: SK-MEL-28 melanoma
DU-145 prostate = test system: DU-145 prostate
EKVX NSCLC = test system: EKVX NSCLC
RPMI-8226 leukemia = test system: RPMI-8226 leukemia
RXF 393 renal = test system: RXF 393 renal
PC-3 prostate = test system: PC-3 prostate
CAKI-1 renal = test system: CAKI-1 renal
OVCAR-8 ovarian = test system: OVCAR-8 ovarian
SNB-75 CNS = test system: SNB-75 CNS
SNB-19 CNS = test system: SNB-19 CNS
T-47D breast = test system: T-47D breast
ACHN renal = test system: ACHN renal
SF-539 CNS = test system: SF-539 CNS
CCRF-CEM leukemia = test system: CCRF-CEM leukemia
BT-549 breast = test system: BT-549 breast
MDA-MB-468 breast = test system: MDA-MB-468 breast
786-0 renal = test system: 786-0 renal
SK-MEL-5 melanoma = test system: SK-MEL-5 melanoma
NCI-H23 lung = test system: NCI-H23 lung
UACC-257 melanoma = test system: UACC-257 melanoma
SF-268 CNS = test system: SF-268 CNS
MDA-MB-435 melanoma = test system: MDA-MB-435 melanoma
UACC-62 melanoma = test system: UACC-62 melanoma
SF-295 CNS = test system: SF-295 CNS
HOP-92 NSCLC = test system: HOP-92 NSCLC
IGROV1 ovarian = test system: IGROV1 ovarian
TK-10 renal = test system: TK-10 renal
OVCAR-5 ovarian = test system: OVCAR-5 ovarian
HS 578T breast = test system: HS 578T breast

Nc1ccn([C@H]2C[C@@H](O)[C@@H](CO)S2)c(=O)n1
active: GI50 (HL-60(TB) leukemia) 306 nM | GI50 (NCI-H522 lung) 113 nM | GI50 (NCI-H460 NSCLC) 204 nM | GI50 (RPMI-8226 leukemia) 368 nM | GI50 (CCRF-CEM leukemia) 55.2 nM
862 nM: TGI (CCRF-CEM leukemia)
27.1 nM: TGI (MOLT-4 leukemia)
inactive: GI50 (COLO 205 colon) > 100 µM | GI50 (SK-MEL-2 melanoma) > 100 µM | GI50 (A498 renal) > 100 µM | GI50 (HCT-15 colon) 1710 nM | GI50 (U251 glioblastoma) > 100 µM | GI50 (HOP-62 NSCLC) 21.8 µM | GI50 (SN12C renal) 11.6 µM | GI50 (M14 melanoma) > 100 µM | GI50 (HT29 colon) > 100 µM | GI50 (NCI/ADR-RES ovarian) 1380 nM | GI50 (SR leukemia) 2500 nM | GI50 (NCI-H322M lung) > 100 µM | GI50 (A549 NSCLC) > 100 µM | GI50 (MDA-MB-231 breast) 2950 nM | GI50 (SK-OV-3 ovarian) > 100 µM | GI50 (OVCAR-3 ovarian) 3.29 µM | GI50 (KM12 colon) 9.08 µM | GI50 (MALME-3M melanoma) > 100 µM | GI50 (SW-620 colon) > 100 µM | GI50 (HCC-2998 colon) 4.98 µM | GI50 (OVCAR-4 ovarian) > 100 µM | GI50 (NCI-H226 lung) 96.9 µM | GI50 (MCF7 breast) > 100 µM | GI50 (SK-MEL-28 melanoma) > 100 µM | GI50 (DU-145 prostate) 20.2 µM | GI50 (EKVX NSCLC) > 100 µM | GI50 (RXF 393 renal) 6.98 µM | GI50 (PC-3 prostate) > 100 µM | GI50 (CAKI-1 renal) > 100 µM | GI50 (OVCAR-8 ovarian) 783 nM | GI50 (SNB-75 CNS) > 100 µM | GI50 (SNB-19 CNS) 4.99 µM | GI50 (T-47D breast) > 100 µM | GI50 (ACHN renal) > 100 µM | GI50 (SF-539 CNS) > 100 µM | GI50 (BT-549 breast) 896 nM | GI50 (MDA-MB-468 breast) > 100 µM | GI50 (786-0 renal) 54.1 µM | GI50 (SK-MEL-5 melanoma) 804 nM | GI50 (NCI-H23 lung) > 100 µM | GI50 (UACC-257 melanoma) > 100 µM | GI50 (SF-268 CNS) 54.4 µM | GI50 (MDA-MB-435 melanoma) > 100 µM | GI50 (UACC-62 melanoma) > 100 µM | GI50 (SF-295 CNS) > 100 µM | GI50 (HOP-92 NSCLC) 2350 nM | GI50 (IGROV1 ovarian) > 100 µM | GI50 (TK-10 renal) > 100 µM | GI50 (OVCAR-5 ovarian) > 100 µM | GI50 (HS 578T breast) > 100 µM
30.8 µM: TGI (OVCAR-8 ovarian)
1150 nM: TGI (NCI-H522 lung)
1590 nM: TGI (RPMI-8226 leukemia)
15.8 µM: TGI (SR leukemia)
26.3 µM: TGI (BT-549 breast)
1260 nM: TGI (HL-60(TB) leukemia)
> 100 µM: TGI (COLO 205 colon) | TGI (SK-MEL-2 melanoma) | TGI (A498 renal) | TGI (HCT-15 colon) | TGI (U251 glioblastoma) | TGI (HOP-62 NSCLC) | TGI (SN12C renal) | TGI (M14 melanoma) | TGI (HT29 colon) | TGI (NCI/ADR-RES ovarian) | TGI (NCI-H460 NSCLC) | TGI (NCI-H322M lung) | TGI (A549 NSCLC) | TGI (MDA-MB-231 breast) | TGI (SK-OV-3 ovarian) | TGI (OVCAR-3 ovarian) | TGI (KM12 colon) | TGI (MALME-3M melanoma) | TGI (SW-620 colon) | TGI (HCC-2998 colon) | TGI (OVCAR-4 ovarian) | TGI (NCI-H226 lung) | TGI (MCF7 breast) | TGI (SK-MEL-28 melanoma) | TGI (DU-145 prostate) | TGI (EKVX NSCLC) | TGI (RXF 393 renal) | TGI (PC-3 prostate) | TGI (CAKI-1 renal) | TGI (SNB-75 CNS) | TGI (SNB-19 CNS) | TGI (T-47D breast) | TGI (ACHN renal) | TGI (SF-539 CNS) | TGI (MDA-MB-468 breast) | TGI (786-0 renal) | TGI (SK-MEL-5 melanoma) | TGI (NCI-H23 lung) | TGI (UACC-257 melanoma) | TGI (SF-268 CNS) | TGI (MDA-MB-435 melanoma) | TGI (UACC-62 melanoma) | TGI (SF-295 CNS) | TGI (HOP-92 NSCLC) | TGI (IGROV1 ovarian) | TGI (TK-10 renal) | TGI (OVCAR-5 ovarian) | TGI (HS 578T breast)
